Assays:
[1] = tested on: murine colorectal cancer Colon 26; assay: Liver metastasis model of murine colorectal cancer Colon 26 (spleen transplantation), survival; type: in vivo, CDF1 mice
Description: When cancer cells are transplanted into the spleen of mice, metastatic cancer is selectively formed in the liver. Use of this model enables various therapeutic experiments in order to control metastasis to liver (refer to MORIKAWA, Kiyoshi, Nude Mouse Spleen Transplantation Method as Human Cancer Liver Metastasis Model, “Oncologia”: 1989, 22(2): p. 100-102, and L. Kopper et al.: Experimental Model for Liver Metastasis Formation Using Lewis Lung Tumor.: “Journal of Cancer Research Clinical Oncology”: 1982, 103: p31-38).
Specifically, a liver metastasis model of murine colorectal cancer Colon 26 was established using 6-week old CDF1 mice. The therapeutic and inhibitory activities were assayed using, as an index, the ratio (life prolongation rate; T/C percentage) of the survival time of a drug-administered group (10 mice per group) to the survival time of a non-drug-administered (control) group (10 mice per group). In the drug-administered group, cisplatin as a platinum complex was dissolved in physiological saline and was orally administered. In the control group, physiological saline alone was orally administered.

[2] = tested on: Human multiple myeloma U266 cells; assay: Bone metastasis model of human multiple myeloma U266 in NOG mice, serum hIgE level; type: in vivo, NOD/SCID/γc^null (NOG) mice
Protocol: The therapeutic and inhibitory effects of combination use with a bisphosphonate against metastasis in an animal model of metastasis to bone were evaluated in the following manner. Human multiple myeloma U266 cells in an amount of 2×10^6 in 0.2 ml were transplanted to NOD/SCID/γc^null (NOG) mice through their tail vein (10 mice per group). […] 21 days after the transplantation, Aredia containing pamidronate, one of bisphosphonates, as an active ingredient was orally administered at a dose of 1 mg per kg per day for consecutive 8 days (Aredia group). […] 29 days after the tumor transplantation, the human IgE (hIgE) level in the serum was measured, and the therapeutic effect against metastasis to bone was determined (refer to Y. Miyakawa et al.: Establishment of a new model of human multiple myeloma using NOD/SCID/γc^null (NOG) mice. “Biochemical and Biophysical Research Communication”: 2004, 313: 258-262).

Melanoma B16 cells = assay: Animal model of metastasis to bone, Melanoma B16 cells transplanted to the left ventricle; type: in vivo, C57BL/6 mice; conditions: oral 1 mg per kg per day
Protocol: The therapeutic effect and inhibitory effect against metastasis in an animal model of metastasis to bone were evaluated in the following manner. Initially, a test animal was anaesthetized with thiamylal, the precordia was disinfected with iodine and 70% ethanol and was incised to 1 cm along with the midline to expose the ribs. The second interspace of the left sternum was needled to a depth of 2 mm with a needle of a tuberculin syringe 30 G. After observing that fresh blood came up into the syringe, cultured tumor cells in an amount of 10^4 cells in 0.1 mL were injected over one minute or longer. At the time when the animal (mouse) was weakened or paralyzed, the mouse was killed with ether anesthesia, and evaluation was conducted (refer to F. Arguello et al.: A Murine Model of Experimental Metastasis to Bone and Bone Marrow. “Cancer Research”: 1988, 48: 6876-6881).
Melanoma B16 cells (10^4/0.1 mL) were transplanted to the left ventricle of 8-week old female C57BL/6 mice (12 mice per group). […] At the time three weeks after the transplantation when the mice were weakened or paralyzed, the mice were killed under inhalation with ether, the target organs were fixed with 10% formalin, and evaluation of tumor metastasis was conducted.

[3] = tested on: Human large cell lung carcinoma LC-1 cells; assay: Tumor growth delay in nude mice with human large cell lung carcinoma LC-1; type: in vivo, BALB/cA-nu/nu mice; conditions: for Tumor Growth Delay Percentage: total 20 mg per kg
Protocol: As an index of the effect, the tumor growth delay percentage (%) was determined by calculation according to the following equation: Tumor Growth Delay Percentage(%)=(A−B)/B×100 (1)
wherein “A” represents the number of days required for the tumor to increase in its volume as much as 8 times in each cisplatin-administered group; and “B” represents the number of days required for the tumor to increase in its volume as much as 8 times in the control group. In addition, blood urea nitrogen (BUN) was measured as an index of nephrotoxicity.

[4] = three weeks after transplantation, control 9/10

In the case of `N.N.[Cl][Pt][Cl]` [Cisplatin, cisplatin], the “Life prolongation effect against liver metastasis (in words)” value ([1]; oral 1 mg per kg per day) is reported as “remarkable life prolongation effect”, the “Median Survival Time” value ([1]; oral 1 mg per kg per day in physiological saline, started one day after transplantation, control 16.0) is reported as 31.0 days and the “T/C (life prolongation rate)” value ([1]; survival time of drug-administered group to control group, oral 1 mg per kg per day) is reported as 194%. For the same molecule, the “hIgE Level in serum” value ([2]; 29 days after transplantation, oral 1 mg per kg per day each, cisplatin day 1-28, Aredia day 21-28, control 351.7 ng/mL) was 210.5 ng/mL, the “Effect on increase in hIgE level due to metastasis to bone (in words)” value ([2]; oral 1 mg per kg per day) was “inhibits the increase in hIgE level” and the “Inhibition of metastasis to bone (in words)” value (Melanoma B16 cells) was “significantly inhibits metastasis to bone”. The “Number of mice where metastasis was observed: Vertebral Column, Cervical Region” value (Melanoma B16 cells; three weeks after transplantation, control 0/10) was 0/10, the “Number of mice where metastasis was observed: Pectoral Region, Breast Bone” value (Melanoma B16 cells; three weeks after transplantation, control 4/10) was 2/10 and the “Number of mice where metastasis was observed: Vertebral Column, Sacral Spine” value (Melanoma B16 cells; three weeks after transplantation, control 6/10) was 1/10. For the same molecule, the “Number of mice where metastasis was observed: Pectoral Region, Blade Bone” value (Melanoma B16 cells; three weeks after transplantation, control 7/10) was 5/10, the “Number of mice where metastasis was observed: Vertebral Column, Lumbar Region” value (Melanoma B16 cells; three weeks after transplantation, control 8/10) was 4/10 and the “Number of mice where metastasis was observed: Pectoral Region, Rib” value (Melanoma B16 cells; [4]) was 5/10. For the same molecule, the “Number of mice where metastasis was observed: Vertebral Column, Pectoral Region” value (Melanoma B16 cells; [4]) was 6/10, the “Tumor Growth Delay Percentage” value ([3]; intermittent intravenous administration, 6.67 mg per kg three times every 7 days) was 265% and the “Growth of cancer (in words)” value ([3]; low-dose daily administration) was “inhibits growth of cancer”. The “Tumor Growth Delay Percentage” value ([3]; low-dose daily intravenous administration, 1.33 mg per kg for 5 consecutive days x 3 courses) was greater than 293%.

— patent US20080069901A1, “Therapeutic Agent for Metastatic Cancer and Cancer Metastasis Inhibitor” (TMRC Co. , Ltd., priority 2004, published 2008)
